Data reported in ChEMBL document CHEMBL2331307, “Modulation of cytochromes P450 with xanthone-based molecules: from aromatase to aldosterone synthase and steroid 11β-hydroxylase inhibition” (J Med Chem, 2013).
pIC50: −log10 of the molar value.

What was measured:
[1] = target: T1, Aromatase (Homo sapiens, UniProt P11511)
T1 sequence (P11511 whole entry): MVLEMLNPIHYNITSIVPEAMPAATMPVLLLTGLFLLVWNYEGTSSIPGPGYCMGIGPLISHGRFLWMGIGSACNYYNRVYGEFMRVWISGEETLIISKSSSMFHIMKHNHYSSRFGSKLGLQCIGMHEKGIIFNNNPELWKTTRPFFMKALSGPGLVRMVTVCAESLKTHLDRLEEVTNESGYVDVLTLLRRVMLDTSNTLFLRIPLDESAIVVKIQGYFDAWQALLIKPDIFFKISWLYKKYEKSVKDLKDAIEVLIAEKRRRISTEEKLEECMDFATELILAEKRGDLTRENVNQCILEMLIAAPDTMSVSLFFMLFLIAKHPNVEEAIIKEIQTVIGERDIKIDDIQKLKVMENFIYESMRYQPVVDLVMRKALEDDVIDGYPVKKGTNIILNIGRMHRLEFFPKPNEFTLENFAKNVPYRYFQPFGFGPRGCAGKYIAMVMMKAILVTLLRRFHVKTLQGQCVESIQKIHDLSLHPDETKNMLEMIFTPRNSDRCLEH
Description: Inhibition of human placental CYP19 using [1beta-3H]androstenedione as substrate by 3H2O-method

[2] = target: T2, Steroid 17-alpha-hydroxylase/17,20 lyase (Homo sapiens, UniProt P05093)
T2 sequence (P05093 whole entry): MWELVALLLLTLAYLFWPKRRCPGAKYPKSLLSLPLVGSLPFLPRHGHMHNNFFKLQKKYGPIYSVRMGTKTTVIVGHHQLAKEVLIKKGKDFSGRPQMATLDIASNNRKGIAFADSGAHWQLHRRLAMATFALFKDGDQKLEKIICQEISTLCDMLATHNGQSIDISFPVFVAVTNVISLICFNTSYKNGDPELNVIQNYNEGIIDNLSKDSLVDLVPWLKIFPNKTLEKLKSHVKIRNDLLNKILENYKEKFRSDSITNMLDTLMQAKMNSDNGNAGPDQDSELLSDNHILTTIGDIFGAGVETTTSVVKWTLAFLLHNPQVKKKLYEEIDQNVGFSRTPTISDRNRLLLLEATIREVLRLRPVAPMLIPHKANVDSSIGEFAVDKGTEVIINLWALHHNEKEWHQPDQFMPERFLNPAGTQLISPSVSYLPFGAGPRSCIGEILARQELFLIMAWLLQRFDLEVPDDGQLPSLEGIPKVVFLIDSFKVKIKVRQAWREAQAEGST
Description: Inhibition of human CYP17 expressed in Escherichia coli co-expressing rat NADPH-P450-reductase using progesterone as substrate

[3] = target: T3, Cytochrome P450 11B2, mitochondrial (Homo sapiens, UniProt P19099)
T3 sequence (P19099 whole entry): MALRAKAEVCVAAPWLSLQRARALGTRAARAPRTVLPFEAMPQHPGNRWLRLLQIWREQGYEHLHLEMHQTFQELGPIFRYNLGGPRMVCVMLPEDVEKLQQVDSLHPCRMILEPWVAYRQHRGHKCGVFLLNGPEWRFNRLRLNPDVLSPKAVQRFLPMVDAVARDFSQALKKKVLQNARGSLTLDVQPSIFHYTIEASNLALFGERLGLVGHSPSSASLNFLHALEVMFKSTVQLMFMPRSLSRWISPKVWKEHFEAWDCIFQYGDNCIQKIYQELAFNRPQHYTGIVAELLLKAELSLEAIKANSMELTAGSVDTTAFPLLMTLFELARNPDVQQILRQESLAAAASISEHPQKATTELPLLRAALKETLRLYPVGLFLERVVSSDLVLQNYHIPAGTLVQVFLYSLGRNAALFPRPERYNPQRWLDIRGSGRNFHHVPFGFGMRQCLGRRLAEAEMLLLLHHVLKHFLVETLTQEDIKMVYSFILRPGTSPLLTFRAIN
Description: Inhibition of human CYP11B2 expressed in hamster V79MZh cells using [1,2-3H]-11-deoxycorticosterone as substrate

[4] = target: T4, Cytochrome P450 11B1, mitochondrial (Homo sapiens, UniProt P15538)
T4 sequence (P15538 whole entry): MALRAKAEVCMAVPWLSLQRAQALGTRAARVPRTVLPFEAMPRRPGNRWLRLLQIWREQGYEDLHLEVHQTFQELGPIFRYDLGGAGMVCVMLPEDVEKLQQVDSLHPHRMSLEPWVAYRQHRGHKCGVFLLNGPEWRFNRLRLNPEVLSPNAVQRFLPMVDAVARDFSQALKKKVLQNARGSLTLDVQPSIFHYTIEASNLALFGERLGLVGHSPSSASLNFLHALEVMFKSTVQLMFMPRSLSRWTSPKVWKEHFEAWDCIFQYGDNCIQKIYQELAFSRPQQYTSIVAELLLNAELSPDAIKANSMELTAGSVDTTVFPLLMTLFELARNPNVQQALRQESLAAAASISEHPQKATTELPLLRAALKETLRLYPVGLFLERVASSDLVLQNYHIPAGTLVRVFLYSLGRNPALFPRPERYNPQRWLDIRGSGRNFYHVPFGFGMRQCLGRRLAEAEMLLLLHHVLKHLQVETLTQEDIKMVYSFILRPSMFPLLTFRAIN
Description: Inhibition of human CYP11B1 expressed in hamster V79MZh cells using [1,2-3H]-11-deoxycorticosterone as substrate

| SMILES | pIC50 [1] | pIC50 [2] | pIC50 [3] | pIC50 [4] |
| --- | --- | --- | --- | --- |
| CCC(C)Oc1ccc(Cn2ccnc2)c2c(=O)c3ccccc3oc12 (configuration not stated) | 6.24 | < 5.30 | 7.82 | 7.88 |
| O=c1c2ccccc2oc2cccc(Cn3ccnc3)c12 |  |  | 6.94 | 7.00 |
| O=c1c2ccccc2oc2c(O)ccc(Cn3ccnc3)c12 | 6.77 | 6.31 | 6.63 | 6.38 |
| CC(C)CCOc1ccc(Cn2ccnc2)c2c(=O)c3ccccc3oc12 | 6.08 | < 5.30 | 7.60 | 7.61 |
| O=c1c2ccccc2oc2c(Cl)ccc(Cn3ccnc3)c12 | 6.32 | 6.59 | 8.52 | 9.30 |
| CC(C)Oc1ccc(Cn2ccnc2)c2c(=O)c3ccccc3oc12 | 6.40 | 5.90 | 7.72 | 7.03 |
| O=c1c2ccccc2oc2c([N+](=O)[O-])ccc(Cn3ccnc3)c12 |  |  | 7.51 | 7.65 |
| C[C@]12CC[C@H](O)CC1=CC[C@@H]1[C@@H]2CC[C@]2(C)C(c3cccnc3)=CC[C@@H]12 [ABIRATERONE] | < 5.30 |  |  |  |
| CCOc1ccc(Cn2ccnc2)c2c(=O)c3ccccc3oc12 | 5.70 | < 5.30 | 7.83 | 7.60 |
| COc1ccc(Cn2ccnc2)c2c(=O)c3ccccc3oc12 | 5.96 | 6.21 | 7.39 | 7.10 |
| O=c1c2ccccc2oc2c(I)ccc(Cn3ccnc3)c12 | 6.34 | 5.87 | 7.63 | 7.72 |
| N#Cc1ccc(Cn2ccnc2)c2c(=O)c3ccccc3oc12 |  |  | 7.71 | 7.87 |
| O=c1c2ccccc2oc2c(OC3CCCC3)ccc(Cn3ccnc3)c12 | 6.59 | < 5.30 | 7.00 | 6.57 |
| O=c1c2ccccc2oc2c(OCC3CC3)ccc(Cn3ccnc3)c12 | 6.25 | < 5.30 | 7.62 | 8.26 |
| O=c1c2ccccc2oc2c(-c3ccccc3)ccc(Cn3ccnc3)c12 | 6.52 | 5.72 | 6.98 | 6.81 |
| Nc1ccc(Cn2ccnc2)c2c(=O)c3ccccc3oc12 | 5.19 | 5.76 | 6.17 | 6.10 |
| O=c1c2ccccc2oc2c(Br)ccc(Cn3ccnc3)c12 |  |  | 8.07 | 8.17 |
